Source: article PMC12090182, “Repurposing of the RIPK1-Selective Benzo[1,4]oxazepin-4-one Scaffold for the Development of a Type III LIMK1/2 Inhibitor” (ACS Chemical Biology, 2025)
Like-named read-outs stand apart in the source and are kept apart here.

System: U2OS cells
Type: cell-based
Details: U2OS
Method: To assess the influence on cell health, a high-content screening in living cells called the multiplex high-content assay, as described previously by Tjaden et al., was performed.[38] In brief, HEK293T (ATCC CRL-1573) and U2OS (ATCCHTB-96) were cultured in DMEM plus L-glutamine (high glucose) supplemented by 10% FBS (Gibco) and penicillin/streptomycin (Gibco). MRC-9 fibroblasts ([…]) were cultured in EMEM plus L-glutamine supplemented by 10% FBS (Gibco) and penicillin/streptomycin (Gibco). Cells were seeded at a density of 1250 cells per well in a 384-well plate in a culture medium (cell culture microplate, PS, f-bottom, μClear, 781091, Greiner), with a volume of 50 μL per well. All outer wells were filled with 100 μL of PBS buffer (Gibco). […] The cell shape and fluorescence were measured before treatment and 12, 24, and 48 h after compound treatment using the CQ1 high-content confocal microscope (Yokogawa, Musashino, Japan). […] The compounds were tested at 1 and 10 μM, respectively. Acquired images of the cells were processed using Yokogawa CellPathfinder software (v3.04.02.02). […] Results were normalized to cells exposed to 0.1% DMSO. All compounds were tested in biological duplicates, and SEM (standard error of mean) was calculated of biological duplicates.

SMILES: CN1C(=O)[C@@H](N2CCc3c(nn(Cc4ccccc4)c3C(N)=O)C2=O)COc2cc(Cl)ccc21 [Compound 10, (S)-2-benzyl-6-(8-chloro-5-methyl-4-oxo-2,3,4,5-tetrahydrobenzo[b][1,4]oxazepin-3-yl)-7-oxo-4,5,6,7-tetrahydro-2H-pyrazolo[3,4-c]pyridine-3-carboxamide]
- Cell count normalized to cells treated with DMSO control (1 µM, 0 h, replicate 1): 1.139
- Cell count per well (1 µM, 0 h, replicate 1): 237
- Population Fragmented Nuclei (%) (1 µM, 0 h, replicate 1): 37.05%
- Population Healthy Nuclei (%) (1 µM, 0 h, replicate 1): 52.23%
- Population Pyknosed Nuclei (%) (1 µM, 0 h, replicate 1): 10.71%
- Population apoptotic cell (%) (1 µM, 0 h, replicate 1): 66.67%
- Population cell that influence microtubule strucutre (%) (1 µM, 0 h, replicate 1): 2.56%
- Population with increased mitochondrial mass (%) (1 µM, 0 h, replicate 1): 0.85%
- Population with membrane disruption (%) (1 µM, 0 h, replicate 1): 5.98%
- Cell count normalized to cells treated with DMSO control (1 µM, 0 h, replicate 2): 0.8633
- Cell count per well (1 µM, 0 h, replicate 2): 74
- Population Fragmented Nuclei (%) (1 µM, 0 h, replicate 2): 16.44%
- Population Healthy Nuclei (%) (1 µM, 0 h, replicate 2): 79.45%
- Population Pyknosed Nuclei (%) (1 µM, 0 h, replicate 2): 4.11%
- Population apoptotic cell (%) (1 µM, 0 h, replicate 2): 33.33%
- Population cell that influence microtubule strucutre (%) (1 µM, 0 h, replicate 2): 1.72%
- Population with increased mitochondrial mass (%) (1 µM, 0 h, replicate 2): 1.72%
- Population with membrane disruption (%) (1 µM, 0 h, replicate 2): 3.45%
- Cell count normalized to cells treated with DMSO control (1 µM, 12 h, replicate 1): 1.055
- Cell count per well (1 µM, 12 h, replicate 1): 279
- Population Fragmented Nuclei (%) (1 µM, 12 h, replicate 1): 23.90%
- Population Healthy Nuclei (%) (1 µM, 12 h, replicate 1): 65.44%
- Population Pyknosed Nuclei (%) (1 µM, 12 h, replicate 1): 10.66%
- Population apoptotic cell (%) (1 µM, 12 h, replicate 1): 75.86%
- Population cell that influence microtubule strucutre (%) (1 µM, 12 h, replicate 1): 2.81%
- Population with increased mitochondrial mass (%) (1 µM, 12 h, replicate 1): 1.69%
- Population with membrane disruption (%) (1 µM, 12 h, replicate 1): 7.87%
- Cell count normalized to cells treated with DMSO control (1 µM, 12 h, replicate 2): 0.9215
- Cell count per well (1 µM, 12 h, replicate 2): 109
- Population Fragmented Nuclei (%) (1 µM, 12 h, replicate 2): 11.11%
- Population Healthy Nuclei (%) (1 µM, 12 h, replicate 2): 84.26%
- Population Pyknosed Nuclei (%) (1 µM, 12 h, replicate 2): 4.63%
- Population apoptotic cell (%) (1 µM, 12 h, replicate 2): 80.00%
- Population cell that influence microtubule strucutre (%) (1 µM, 12 h, replicate 2): 2.20%
- Population with increased mitochondrial mass (%) (1 µM, 12 h, replicate 2): 2.20%
- Population with membrane disruption (%) (1 µM, 12 h, replicate 2): 3.30%
- Cell count normalized to cells treated with DMSO control (1 µM, 24 h, replicate 1): 1.136
- Cell count per well (1 µM, 24 h, replicate 1): 354
- Population Fragmented Nuclei (%) (1 µM, 24 h, replicate 1): 25.72%
- Population Healthy Nuclei (%) (1 µM, 24 h, replicate 1): 65.90%
- Population Pyknosed Nuclei (%) (1 µM, 24 h, replicate 1): 8.38%
- Population apoptotic cell (%) (1 µM, 24 h, replicate 1): 82.76%
- Population cell that influence microtubule strucutre (%) (1 µM, 24 h, replicate 1): 4.39%
- Population with increased mitochondrial mass (%) (1 µM, 24 h, replicate 1): 2.63%
- Population with membrane disruption (%) (1 µM, 24 h, replicate 1): 7.02%
- Cell count normalized to cells treated with DMSO control (1 µM, 24 h, replicate 2): 0.9633
- Cell count per well (1 µM, 24 h, replicate 2): 137
- Population Fragmented Nuclei (%) (1 µM, 24 h, replicate 2): 12.50%
- Population Healthy Nuclei (%) (1 µM, 24 h, replicate 2): 81.62%
- Population Pyknosed Nuclei (%) (1 µM, 24 h, replicate 2): 5.88%
- Population apoptotic cell (%) (1 µM, 24 h, replicate 2): 87.50%
- Population cell that influence microtubule strucutre (%) (1 µM, 24 h, replicate 2): 1.80%
- Population with increased mitochondrial mass (%) (1 µM, 24 h, replicate 2): 1.80%
- Population with membrane disruption (%) (1 µM, 24 h, replicate 2): 3.60%
- Cell count normalized to cells treated with DMSO control (1 µM, 48 h, replicate 1): 1.128
- Cell count per well (1 µM, 48 h, replicate 1): 502
- Population Fragmented Nuclei (%) (1 µM, 48 h, replicate 1): 21.34%
- Population Healthy Nuclei (%) (1 µM, 48 h, replicate 1): 69.72%
- Population Pyknosed Nuclei (%) (1 µM, 48 h, replicate 1): 8.94%
- Population apoptotic cell (%) (1 µM, 48 h, replicate 1): 86.36%
- Population cell that influence microtubule strucutre (%) (1 µM, 48 h, replicate 1): 2.04%
- Population with increased mitochondrial mass (%) (1 µM, 48 h, replicate 1): 3.21%
- Population with membrane disruption (%) (1 µM, 48 h, replicate 1): 6.41%
- Cell count normalized to cells treated with DMSO control (1 µM, 48 h, replicate 2): 0.973
- Cell count per well (1 µM, 48 h, replicate 2): 201
- Population Fragmented Nuclei (%) (1 µM, 48 h, replicate 2): 6.57%
- Population Healthy Nuclei (%) (1 µM, 48 h, replicate 2): 83.33%
- Population Pyknosed Nuclei (%) (1 µM, 48 h, replicate 2): 10.10%
- Population apoptotic cell (%) (1 µM, 48 h, replicate 2): 85.00%
- Population cell that influence microtubule strucutre (%) (1 µM, 48 h, replicate 2): 1.82%
- Population with increased mitochondrial mass (%) (1 µM, 48 h, replicate 2): 2.42%
- Population with membrane disruption (%) (1 µM, 48 h, replicate 2): 4.85%
- cytotoxicity (1 μM): no cytotoxicity
- Cell count normalized to cells treated with DMSO control (10 µM, 0 h, replicate 1): 1.1102
- Cell count per well (10 µM, 0 h, replicate 1): 231
- Population Fragmented Nuclei (%) (10 µM, 0 h, replicate 1): 38.84%
- Population Healthy Nuclei (%) (10 µM, 0 h, replicate 1): 51.34%
- Population Pyknosed Nuclei (%) (10 µM, 0 h, replicate 1): 9.82%
- Population apoptotic cell (%) (10 µM, 0 h, replicate 1): 95.45%
- Population cell that influence microtubule strucutre (%) (10 µM, 0 h, replicate 1): 3.48%
- Population with increased mitochondrial mass (%) (10 µM, 0 h, replicate 1): 3.48%
- Population with membrane disruption (%) (10 µM, 0 h, replicate 1): 6.09%
- Cell count normalized to cells treated with DMSO control (10 µM, 0 h, replicate 2): 1.062
- Cell count per well (10 µM, 0 h, replicate 2): 91
- Population Fragmented Nuclei (%) (10 µM, 0 h, replicate 2): 26.19%
- Population Healthy Nuclei (%) (10 µM, 0 h, replicate 2): 64.29%
- Population Pyknosed Nuclei (%) (10 µM, 0 h, replicate 2): 9.52%
- Population apoptotic cell (%) (10 µM, 0 h, replicate 2): 100.00%
- Population cell that influence microtubule strucutre (%) (10 µM, 0 h, replicate 2): 3.70%
- Population with increased mitochondrial mass (%) (10 µM, 0 h, replicate 2): 3.70%
- Population with membrane disruption (%) (10 µM, 0 h, replicate 2): 7.41%
- Cell count normalized to cells treated with DMSO control (10 µM, 12 h, replicate 1): 1.017
- Cell count per well (10 µM, 12 h, replicate 1): 269
- Population Fragmented Nuclei (%) (10 µM, 12 h, replicate 1): 26.62%
- Population Healthy Nuclei (%) (10 µM, 12 h, replicate 1): 63.50%
- Population Pyknosed Nuclei (%) (10 µM, 12 h, replicate 1): 9.89%
- Population apoptotic cell (%) (10 µM, 12 h, replicate 1): 73.08%
- Population cell that influence microtubule strucutre (%) (10 µM, 12 h, replicate 1): 4.19%
- Population with increased mitochondrial mass (%) (10 µM, 12 h, replicate 1): 6.59%
- Population with membrane disruption (%) (10 µM, 12 h, replicate 1): 8.38%
- Cell count normalized to cells treated with DMSO control (10 µM, 12 h, replicate 2): 0.9722
- Cell count per well (10 µM, 12 h, replicate 2): 115
- Population Fragmented Nuclei (%) (10 µM, 12 h, replicate 2): 22.52%
- Population Healthy Nuclei (%) (10 µM, 12 h, replicate 2): 63.96%
- Population Pyknosed Nuclei (%) (10 µM, 12 h, replicate 2): 13.51%
- Population apoptotic cell (%) (10 µM, 12 h, replicate 2): 100.00%
- Population cell that influence microtubule strucutre (%) (10 µM, 12 h, replicate 2): 7.04%
- Population with increased mitochondrial mass (%) (10 µM, 12 h, replicate 2): 9.86%
- Population with membrane disruption (%) (10 µM, 12 h, replicate 2): 7.04%
- Cell count normalized to cells treated with DMSO control (10 µM, 24 h, replicate 1): 0.9881
- Cell count per well (10 µM, 24 h, replicate 1): 308
- Population Fragmented Nuclei (%) (10 µM, 24 h, replicate 1): 23.59%
- Population Healthy Nuclei (%) (10 µM, 24 h, replicate 1): 66.78%
- Population Pyknosed Nuclei (%) (10 µM, 24 h, replicate 1): 9.63%
- Population apoptotic cell (%) (10 µM, 24 h, replicate 1): 96.55%
- Population cell that influence microtubule strucutre (%) (10 µM, 24 h, replicate 1): 6.97%
- Population with increased mitochondrial mass (%) (10 µM, 24 h, replicate 1): 4.98%
- Population with membrane disruption (%) (10 µM, 24 h, replicate 1): 5.97%
- Cell count normalized to cells treated with DMSO control (10 µM, 24 h, replicate 2): 0.886
- Cell count per well (10 µM, 24 h, replicate 2): 126
- Population Fragmented Nuclei (%) (10 µM, 24 h, replicate 2): 18.18%
- Population Healthy Nuclei (%) (10 µM, 24 h, replicate 2): 71.90%
- Population Pyknosed Nuclei (%) (10 µM, 24 h, replicate 2): 9.92%
- Population apoptotic cell (%) (10 µM, 24 h, replicate 2): 100.00%
- Population cell that influence microtubule strucutre (%) (10 µM, 24 h, replicate 2): 6.90%
- Population with increased mitochondrial mass (%) (10 µM, 24 h, replicate 2): 6.90%
- Population with membrane disruption (%) (10 µM, 24 h, replicate 2): 10.34%
- Cell count normalized to cells treated with DMSO control (10 µM, 48 h, replicate 1): 0.9437
- Cell count per well (10 µM, 48 h, replicate 1): 420
- Population Fragmented Nuclei (%) (10 µM, 48 h, replicate 1): 19.22%
- Population Healthy Nuclei (%) (10 µM, 48 h, replicate 1): 67.40%
- Population Pyknosed Nuclei (%) (10 µM, 48 h, replicate 1): 13.38%
- Population apoptotic cell (%) (10 µM, 48 h, replicate 1): 90.91%
- Population cell that influence microtubule strucutre (%) (10 µM, 48 h, replicate 1): 3.61%
- Population with increased mitochondrial mass (%) (10 µM, 48 h, replicate 1): 3.97%
- Population with membrane disruption (%) (10 µM, 48 h, replicate 1): 5.78%
- Cell count normalized to cells treated with DMSO control (10 µM, 48 h, replicate 2): 0.7019
- Cell count per well (10 µM, 48 h, replicate 2): 145
- Population Fragmented Nuclei (%) (10 µM, 48 h, replicate 2): 21.28%
- Population Healthy Nuclei (%) (10 µM, 48 h, replicate 2): 65.96%
- Population Pyknosed Nuclei (%) (10 µM, 48 h, replicate 2): 12.77%
- Population apoptotic cell (%) (10 µM, 48 h, replicate 2): 83.33%
- Population cell that influence microtubule strucutre (%) (10 µM, 48 h, replicate 2): 7.53%
- Population with increased mitochondrial mass (%) (10 µM, 48 h, replicate 2): 7.53%
- Population with membrane disruption (%) (10 µM, 48 h, replicate 2): 15.05%
- impact on tubulin, mitochondrial mass, and cellular permeability in healthy cells (1 μM (Figure 6)): comparable to that of the 0.1% DMSO control
